Data published in patent US8946212B2, “Annelated N-heterocyclic sulfonamides with oxadiazolone headgroup, processes for their preparation and their use as pharmaceuticals” (Sanofi-Aventis, priority 2008, dated 2015).
Like-named read-outs stand apart in the source and are kept apart here. One block for each compound: values may come before it.

Key:
[1] = obese, insulin resistant rhesus monkeys, cited from earlier work
[2] = diabetic animal model; cited from earlier work
[3] = rhesus monkeys; cited from earlier work
[4] = cynomolgus monkeys; cited from earlier work
[5] = two weeks clinical trials in healthy volunteers; cited from earlier work
human PPARdelta = target: T1, human PPARdelta (Homo sapiens, UniProt Q03181); assay: Cellular PPARdelta assay (HEK reporter cell line, luciferase); format: cell-based; conditions: PPARdelta reporter cell line (HEK, GR-GAL4-humanPPARdelta-LBD)
T1 construct: human PPARdelta receptor (amino acids S139-Y441); expressed in transfected cells; host or cells: HEK (human embryo kidney) cells, stably transfected; plasmid pcDNA3
T1 sequence (Q03181 139-441): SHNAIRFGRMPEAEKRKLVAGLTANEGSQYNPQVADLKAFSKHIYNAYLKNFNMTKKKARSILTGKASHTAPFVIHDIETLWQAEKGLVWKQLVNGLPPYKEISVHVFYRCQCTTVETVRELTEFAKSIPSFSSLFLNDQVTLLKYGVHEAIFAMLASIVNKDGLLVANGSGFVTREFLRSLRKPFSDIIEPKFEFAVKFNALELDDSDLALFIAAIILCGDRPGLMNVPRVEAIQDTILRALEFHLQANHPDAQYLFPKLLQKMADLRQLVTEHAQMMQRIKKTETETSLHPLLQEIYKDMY
Experimental: The potency of substances which bind to human PPARdelta and activate it in an agonistic manner is analyzed using a stably transfected HEK cell line (HEK=human embryo kidney) which is referred to here as PPARdelta reporter cell line. In analogy to the assay described for PPARalpha, the PPARdelta reporter cell line also contains two genetic elements, a luciferase reporter element (pdeltaM-GAL4-Luc-Zeo) and a PPARdelta fusion protein (GR-GAL4-humanPPARdelta-LBD) which mediates expression of the luciferase reporter element depending on a PPARdelta ligand. The stably and constitutively expressed fusion protein GR-GAL4-humanPPARdelta-LBD binds in the cell nucleus of the PPARdelta reporter cell line via the GAL4 protein portion to the GAL4 DNA binding motifs 5″-upstream of the luciferase reporter element which is stably integrated in the genome of the cell line. There is only little expression of the luciferase reporter gene in the absence of a PPARdelta ligand if fatty acid-depleted fetal calf serum (cs-FCS) is used in the assay. PPARdelta ligands bind and activate the PPARdelta fusion protein and thereby stimulate expression of the luciferase reporter gene. The luciferase which is formed can be detected by means of chemiluminescence via an appropriate substrate.
The production of the stable PPARdelta reporter cell line is based on a stable HEK-cell clone which was stably transfected with a luciferase reporter element. This step was already described above in the section “construction of the PPARalpha reporter cell line”. In a second step, the PPARdelta fusion protein (GR-GAL4-humanPPARdelta-LBD was stably introduced into this cell clone. For this purpose, the cDNA coding for the N-terminal 76 amino acids of the glucocorticoid receptor (Accession # P4150) was linked to the cDNA section coding for amino acids 1-147 of the yeast transcription factor GAL4 (Accession #P04386). The cDNA of the ligand-binding domain of the human PPARdelta receptor (amino acids S139-Y441; Accession # L07592) was cloned in at the 3′-end of this GR-GAL4 construct. The fusion construct prepared in this way (GR-GAL4-humanPPARdelta-LBD) was recloned into the plasmid pcDNA3 (Invitrogen) in order to enable constitutive expression by the cytomegalovirus promoter. This plasmid was linearized with a restriction endonuclease and stably transfected into the previously described cell clone containing the luciferase reporter element. The resulting PPARdelta reporter cell line which contains a luciferase reporter element and constitutively expresses the PPARdelta fusion protein (GR-GAL4-human PPARdelta-LBD) was isolated by selection with zeocin (0.5 mg/ml) and G418 (0.5 mg/ml).
The activity of PPARdelta agonists is determined in a 3-day assay in exact analogy to the procedure already described for the PPARalpha reporter cell line except that the PPARdelta reporter cell line and a specific PPARdelta agonist was used as a standard to control test efficacy.

human PPARalpha = target: T2, human PPARalpha (Homo sapiens, UniProt Q07869); assay: Cellular PPARalpha assay (HEK reporter cell line, luciferase); format: cell-based; conditions: PPARalpha reporter cell line (HEK, GR-GAL4-humanPPARalpha-LBD)
T2 construct: human PPARalpha receptor (amino acids S167-Y468); expressed in transfected cells; host or cells: HEK (human embryo kidney) cells, stably transfected; plasmid pcDNA3
T2 sequence (Q07869 167-468): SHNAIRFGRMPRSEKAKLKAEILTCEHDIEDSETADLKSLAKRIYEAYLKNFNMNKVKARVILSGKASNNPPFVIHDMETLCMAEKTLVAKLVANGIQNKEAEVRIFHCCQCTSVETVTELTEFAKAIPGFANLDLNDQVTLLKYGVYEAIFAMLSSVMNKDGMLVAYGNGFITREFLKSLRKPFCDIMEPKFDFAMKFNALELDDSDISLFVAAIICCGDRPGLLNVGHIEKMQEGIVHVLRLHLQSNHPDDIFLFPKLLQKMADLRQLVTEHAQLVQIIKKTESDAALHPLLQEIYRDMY
Experimental: The potency of substances which bind to human PPARalpha and activate it in an agonistic manner is analyzed using a stably transfected HEK cell line (HEK=human embryo kidney) which is referred to here as PPARalpha reporter cell line. It contains two genetic elements, a luciferase reporter element (pdeltaM-GAL4-Luc-Zeo) and a PPARalpha fusion protein (GR-GAL4-humanPPARalpha-LBD) which mediates expression of the luciferase reporter element depending on a PPARalpha ligand. The stably and constitutively expressed fusion protein GR-GAL4-humanPPARalpha-LBD binds in the cell nucleus of the PPARalpha reporter cell line via the GAL4 protein portion to the GAL4 DNA binding motifs 5′-upstream of the luciferase reporter element which is stably integrated in the genome of the cell line. There is only weak expression of the luciferase reporter gene in the absence of a PPARalpha ligand if fatty acid-depleted fetal calf serum (cs-FCS) is used in the assay. PPARalpha ligands bind and activate the PPARalpha fusion protein and thereby stimulate the expression of the luciferase reporter gene. The luciferase which is formed can be detected by means of chemiluminescence via an appropriate substrate.
The PPARalpha reporter cell line was prepared in two stages. […]
The activity of PPARalpha agonists is determined in a 3-day assay which is described below: […]

Compound: Cc1cc(SCc2sc(-c3ccc(C(F)(F)F)cc3)nc2C)ccc1OCC(=O)O [GW501516]
insulin levels ([1]; plasma): decreases
triglycerides ([1]; plasma): decreases
HDL-cholesterol [1]: raises
plasma LDL-cholesterol [1]: decreases

Compound: CCCc1c(OCCCOc2ccc(OCC(=O)O)cc2)ccc(C(C)=O)c1O [Example L-165041]
plasma cholesterol [2]: raises

Compound: CCCc1c(OCCCSc2nnc(SCC(=O)O)s2)ccc(C(C)=O)c1O [YM-16638]
plasma lipids [3]: significantly lowers
plasma lipids [4]: significantly lowers
plasma lipids [5]: acts in a similar manner

EC50 (human PPARdelta): 55 nM
Compound: 3-{2-Chloro-4-[7-(4-trifluoromethyl-phenyl)-2,3-dihydro-pyrido[3,2-b][1,4]oxazin-4-yl]-phenyl}-4H-[1,2,4]oxadiazol-5-one [Example 8]

Compound: 3-{2-Chloro-4-[4,4-dimethyl-6-(4-trifluoromethyl-phenyl)-3,4-dihydro-2H-quinolin-1-yl]-phenyl}-4H-[1,2,4]oxadiazol-5-one [Example 3]
EC50 (human PPARdelta): 3.3 nM

Compound: 3-{4-[6-(4-Trifluoromethyl-phenyl)-3,4-dihydro-2H-quinolin-1-yl]-phenyl}-4H-[1,2,4]oxadiazol-5-one [Example 1]
EC50 (human PPARdelta): 2.3 nM

EC50 (human PPARdelta): 530 nM
Compound: O=c1[nH]c(-c2ccc(S(=O)(=O)N3CCNCc4cc(-c5ccc(C(F)(F)F)cc5)ccc43)cc2Cl)no1 [Example 12, 3-{2-Chloro-4-[7-(4-trifluoromethyl-phenyl)-2,3,4,5-tetrahydro-benzo[e][1,4]diazepine-1-sulfonyl]-phenyl}-4H-[1,2,4]oxadiazol-5-one]

EC50 (human PPARdelta): 1.9 nM
Compound: CC1(C)Cc2cc(-c3ccc(C(F)(F)F)cc3)ccc2N(c2ccc(-c3noc(=O)[nH]3)c(Cl)c2)C1 [Example 5, 3-{2-Chloro-4-[3,3-dimethyl-6-(4-trifluoromethyl-phenyl)-3,4-dihydro-2H-quinolin-1-yl]-phenyl}-4H-[1,2,4]oxadiazol-5-one]

EC50 (human PPARalpha): 505 nM
EC50 (human PPARdelta): 0.4 nM
Compound: O=c1[nH]c(-c2ccc(S(=O)(=O)N3CCCc4nc(-c5ccc(C(F)(F)F)cc5)ccc43)cc2Cl)no1 [Example 13, 3-{2-Chloro-4-[6-(4-trifluoromethyl-phenyl)-3,4-dihydro-2H-[1,5]naphthyridine-1-sulfonyl]-phenyl}-4H-[1,2,4]oxadiazol-5-one]
